Measured values taken from patent US7667022B2, “Promoter for high-throughput screening for inhibitors against Mycobacteria under low carbon conditions” (Council of Scientific & Industrial Research, priority 2003, dated 2010).

System: Mycobacterium smegmatis, mc^2155
Experiment: Percent inhibition of growth of liquid culture (optical density vs control without antibiotic) at 2% or 0.02% glucose
Type: cell-based
Settings: for % inhibition of growth at 0.02% Glucose: 0.02% Glucose (starved)

**Q.** Which “% inhibition of growth at 0.02% Glucose” value (0.15 μgm/ml) does the source give for `CC[C@@H](CO)NCCN[C@@H](CC)CO` [Ethambutol] here?
**A.** 37%

**Q.** What about the “% inhibition of growth at 2% Glucose” value (0.15 μgm/ml) of the same molecule?
**A.** 44%

**Q.** And the “% inhibition of growth at 0.02% Glucose” value (0.31 μgm/ml)?
**A.** 66%

**Q.** And the “% inhibition of growth at 2% Glucose” value (0.31 μgm/ml)?
**A.** 85%

**Q.** And the “% inhibition of growth at 0.02% Glucose” value (0.63 μgm/ml)?
**A.** 68%

**Q.** And the “% inhibition of growth at 2% Glucose” value (0.63 μgm/ml)?
**A.** 91%

**Q.** What about the “% inhibition of growth at 0.02% Glucose” value (1.25 μgm/ml) of the same molecule?
**A.** 72%

**Q.** What about the “% inhibition of growth at 2% Glucose” value (1.25 μgm/ml) of the same molecule?
**A.** 93%

**Q.** Which “% inhibition of growth at 0.02% Glucose” value (0.8 μgm/ml) does the source give for `NNC(=O)c1ccncc1` [Isoniazide] here?
**A.** 12%

**Q.** And the “% inhibition of growth at 2% Glucose” value (0.8 μgm/ml)?
**A.** 33%

**Q.** And the “% inhibition of growth at 0.02% Glucose” value (1.6 μgm/ml)?
**A.** 30%

**Q.** What about the “% inhibition of growth at 2% Glucose” value (1.6 μgm/ml) of the same molecule?
**A.** 70%

**Q.** And the “% inhibition of growth at 0.02% Glucose” value (3.2 μgm/ml)?
**A.** 70%

**Q.** What about the “% inhibition of growth at 2% Glucose” value (3.2 μgm/ml) of the same molecule?
**A.** 90%

**Q.** And the “% inhibition of growth at 0.02% Glucose” value (6.4 μgm/ml)?
**A.** 78%

**Q.** And the “% inhibition of growth at 2% Glucose” value (6.4 μgm/ml)?
**A.** 96%

**Q.** Which “% inhibition of growth at 0.02% Glucose” value (0.25 μgm/ml) does the source give for `CO[C@H]1/C=C/O[C@@]2(C)Oc3c(C)c(O)c4c(O)c(c(/C=N/N5CCN(C)CC5)c(O)c4c3C2=O)NC(=O)/C(C)=C\C=C\[C@H](C)[C@H](O)[C@@H](C)[C@@H](O)[C@@H](C)[C@H](OC(C)=O)[C@@H]1C` [Rifampicin] here?
**A.** 9%

**Q.** And the “% inhibition of growth at 2% Glucose” value (0.25 μgm/ml)?
**A.** 39%

**Q.** And the “% inhibition of growth at 0.02% Glucose” value (0.5 μgm/ml)?
**A.** 17%

**Q.** And the “% inhibition of growth at 2% Glucose” value (0.5 μgm/ml)?
**A.** 58%

**Q.** And the “% inhibition of growth at 0.02% Glucose” value (1.0 μgm/ml)?
**A.** 29%

**Q.** And the “% inhibition of growth at 2% Glucose” value (1.0 μgm/ml)?
**A.** 70%

**Q.** What about the “% inhibition of growth at 0.02% Glucose” value (2.0 μgm/ml) of the same molecule?
**A.** 68%

**Q.** And the “% inhibition of growth at 2% Glucose” value (2.0 μgm/ml)?
**A.** 89%

**Q.** And the “reduction of inhibition of growth in the presence of the promoter under a stationary or a starved state” value (stationary or starved state)?
**A.** about 20%
